The text below walks through data of patent US10167279B2 (NOVARTIS AG, priority 2014, dated 2019).

Chain of C-Raf FL (P04049 whole entry Y340E/Y341E): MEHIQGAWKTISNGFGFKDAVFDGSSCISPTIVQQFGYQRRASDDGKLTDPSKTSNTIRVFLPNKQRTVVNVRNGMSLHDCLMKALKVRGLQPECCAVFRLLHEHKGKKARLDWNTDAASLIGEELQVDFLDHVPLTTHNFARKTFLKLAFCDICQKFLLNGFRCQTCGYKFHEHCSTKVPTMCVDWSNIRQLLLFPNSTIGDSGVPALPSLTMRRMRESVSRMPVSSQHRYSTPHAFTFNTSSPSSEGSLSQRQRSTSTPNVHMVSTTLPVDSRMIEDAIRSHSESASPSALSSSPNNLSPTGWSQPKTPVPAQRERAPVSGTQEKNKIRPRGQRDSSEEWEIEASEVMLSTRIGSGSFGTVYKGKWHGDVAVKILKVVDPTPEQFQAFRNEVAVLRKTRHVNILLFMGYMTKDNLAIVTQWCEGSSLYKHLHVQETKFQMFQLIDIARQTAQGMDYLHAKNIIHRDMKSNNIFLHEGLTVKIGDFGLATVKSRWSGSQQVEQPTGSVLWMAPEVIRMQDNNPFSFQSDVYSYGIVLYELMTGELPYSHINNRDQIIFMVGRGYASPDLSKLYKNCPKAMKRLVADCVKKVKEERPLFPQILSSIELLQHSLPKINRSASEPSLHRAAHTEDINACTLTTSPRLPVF
Chain of C-Raf FL (P63104 whole entry partner): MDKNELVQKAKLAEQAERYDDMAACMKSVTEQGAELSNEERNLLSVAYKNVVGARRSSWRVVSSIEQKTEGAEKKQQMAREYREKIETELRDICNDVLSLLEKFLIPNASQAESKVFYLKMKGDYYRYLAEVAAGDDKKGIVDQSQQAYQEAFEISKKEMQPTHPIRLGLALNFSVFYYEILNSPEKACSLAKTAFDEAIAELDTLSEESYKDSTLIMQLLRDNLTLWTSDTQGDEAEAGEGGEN

For this experiment, the target named is C-Raf FL (Homo sapiens (Human), UniProt P04049, Y340E/Y341E). The experiment in a line: In vitro Raf activity determination (Alpha Screen, phospho-MEK), C-Raf FL (full length, Y340E/Y341E). The class given is biochemical. The conditions noted are these: ATP 1 μM; 60 min pre-incubation; 1 hour reaction; column head does not say FL or TR. An excerpt:
The activity of a compound according to the present invention can be assessed by well-known in vitro & in vivo methods. Raf inhibition data provided herein was obtained using the following procedures.
Sf9 cells co-expressing both proteins were lysed and subjected to immobilized nickel chromatography and eluted with Imidazole. A second column (StrepII binding column) was used and eluted with desthiobiotin. Protein Tags were removed using Prescission enzyme and the protein was further purified using a flowthrough step to remove tags.
C-Raf TR refers to a truncated C-Raf protein, a Δ1-324 deletion mutant. C-Raf FL refers to the full-length C-Raf protein.
Full length MEK1 with an inactivating K97R ATP binding site mutation is utilized as a RAF substrate. The MEK1 cDNA was subcloned with an N-terminal (his)6 tag into a vector for E. Coli expression. The MEK1 substrate was purified from E. Coli lysate by nickel affinity chromatography followed by anion exchange. The final MEK1 preparation was biotinylated (Pierce EZ-Link Sulfo-NHS-LC-Biotin) and concentrated.
Assay protocol: Raf and biotinylated Mek (kinase dead) were combined at 2× final concentrations in assay buffer (50 mM Tris, pH 7.5, 15 mM MgCl2, 0.01% BSA and 1 mM DTT) and dispensed […] per well in assay plates (Greiner white 384 well assay plates #781207) containing […] of 40× of a Raf kinase inhibitor test compound diluted in 100% DMSO. The plate was incubated for 60 minutes at room temperature. […] The reactions were stopped and the phosphorylated product was measured using a rabbit anti-p-MEK (Cell Signaling, #9121) antibody and the Alpha Screen IgG (ProteinA) detection Kit (PerkinElmer #6760617R), by the addition of […] to the well of a mixture of the antibody (1:2000 dilution) and detection beads (1:2000 dilution of both beads) in Stop/bead buffer (25 mM EDTA, 50 mM Tris, pH 7.5, 0.01% Tween20). The additions were carried out under dark conditions to protect the detection beads from light. A lid was placed on top of the plate and incubated for 1 hour at room temperature, after which the luminescence was read on a PerkinElmer Envision instrument. The concentration of each compound for 50% inhibition (IC50) was calculated by non-linear regression using XL Fit data analysis software.
In the case of `CCOc1ncc(-c2cc(NC(=O)c3ccnc(C(C)(C)F)c3)cnc2C)cc1C1(C)COC1` [Example 3, N-(6′-ethoxy-2-methyl-5′-(3-methyloxetan-3-yl)-[3,3′-bipyridin]-5-yl)-2-(2-fluoropropan-2-yl)isonicotinamide], the IC50 – broadly, the concentration that inhibits the measured activity by half – amounted to 0.5 nM.

Compound `Cc1ccc(NC(=O)c2cc(C(F)(F)F)ccn2)cc1-c1cc2c(c(C3CCOCC3)c1)NC(=O)C(C)(CO)O2` (stereo not drawn) [Example 192, N-(3-(2-(hydroxymethyl)-2-methyl-3-oxo-5-(tetrahydro-2H-pyran-4-yl)-3,4-dihydro-2H-benzo [b][1,4]oxazin-7-yl)-4-methylphenyl)-4-(trifluoromethyl) picolinamide] yielded an IC50 of 0.3 nM.

Consider `CCOc1ncc(-c2cc(NC(=O)c3ccnc(C(C)(C)C#N)c3)ccc2C)cc1C1(CO)CCOC1` (stereo not drawn) [Example 289, 2-(2-cyanopropan-2-yl)-N-(3-(6-ethoxy-5-(3-(hydroxymethyl)tetrahydrofuran-3-yl)pyridin-3-yl)-4-methylphenyl) isonicotinamide], for which the midpoint of inhibition, the IC50, lay at 2 nM. As for `Cc1ccc(NC(=O)c2cc(C(F)(F)F)nc(N(C)C)n2)cc1-c1cc(OCCO)nc(C2CCOCC2)c1` [Example 257, 2-(dimethylamino)-N-(3-(2-(2-hydroxyethoxy)-6-(tetrahydro-2H-pyran-4-yl)pyridin-4-yl)-4-methylphenyl)-6-(trifluoromethyl) pyrimidine-4-carboxamide], the figure is 1 nM. On to `Cc1ccc(NC(=O)c2ccnc(C(F)(F)F)c2)cc1-c1cc(C2CCOCC2)c(N[C@H](C)CO)nn1` [Example 310, (R)-N-(3-(6-((1-hydroxypropan-2-yl)amino)-5-(tetrahydro-2H-pyran-4-yl)pyridazin-3-yl)-4-methylphenyl)-2-(trifluoromethyl) isonicotinamide], for which the IC50 worked out at 0.04 nM. With `Cc1ccc(NC(=O)c2cccc(C(F)(F)F)c2)cc1-c1cc(NCCO)nc(C2CCOCC2)c1` [Example 174], the IC50 was found to be 0.331 nM. As for `Cc1ccc(NC(=O)c2cccc(C(F)(F)F)c2)cc1-c1cc(C2(O)COC2)cc(C2(F)COC2)c1` [Example 134, N-(3′-(3-fluorooxetan-3-yl)-5′-(3-hydroxyoxetan-3-yl)-6-methyl-[1,1′-biphenyl]-3-yl)-3-(trifluoromethyl)benzamide], the IC50 was determined as 0.566 nM.

For the compound `CCOc1ncc(-c2cc(NC(=O)c3ccnc(C(C)(C)F)c3)cnc2C)cc1C1(CO)CCOC1` (stereo not drawn) [Example 292, N-(6′-ethoxy-5′-(3-(hydroxymethyl)tetrahydrofuran-3-yl)-2-methyl-[3,3′-bipyridin]-5-yl)-2-(2-fluoropropan-2-yl)isonicotinamide], the IC50 turned out to be 9 nM. As for `Cc1ccc(NC(=O)c2ccnc(Cl)c2)cc1-c1cc(OCCO)nc(C2CCOCC2)c1` [Example 264, 2-chloro-N-(3-(2-(2-hydroxyethoxy)-6-(tetrahydro-2H-pyran-4-yl)pyridin-4-yl)-4-methylphenyl) isonicotinamide], the figure is 0.2 nM; as for `Cc1ccc(NC(=O)c2cccc(C(F)(F)F)c2)cc1-c1cn(C)c(=O)c(C2COC2)n1` [Example 4, N-(4-methyl-3-(4-methyl-6-(oxetan-3-yl)-5-oxo-4,5-dihydropyrazin-2-yl)phenyl)-3-(trifluoromethyl)benzamide], 3 nM; as for `Cc1ncc(NC(=O)c2cccc(C(F)(F)F)c2)cc1-c1cc(C2(C)COC2)c(OC2CCOCC2)nn1` [Example 11], 0.6 nM. As for `Cc1ccc(NC(=O)c2cnnc(C(F)(F)F)c2)cc1-c1cc2c(c(C3CCOCC3)c1)OC(C)(CO)C(=O)N2` (stereo not drawn) [Example 201, N-(3-(2-(hydroxymethyl)-2-methyl-3-oxo-8-(tetrahydro-2H-pyran-4-yl)-3,4-dihydro-2H-benzo[b][1,4]oxazin-6-yl)-4-methylphenyl)-6-(trifluoromethyl) pyridazine-4-carboxamide], the figure is 0.1 nM; as for `Cc1ccc(NC(=O)c2ccnc(C(C)(F)F)c2)cc1-c1cc(C2CCOCC2)nc(N(CCO)CCO)c1` [Example 177, N-(3-(2-(bis(2-hydroxyethyl)amino)-6-(tetrahydro-2H-pyran-4-yl)pyridin-4-yl)-4-methylphenyl)-2-(1,1-difluoroethyl) isonicotinamide], 0.621 nM; as for `COc1ncc(-c2cc(NC(=O)c3cc(C(F)(F)F)cc(C(C)(C)N)n3)ccc2C)cc1C1(O)COC1` [Example 19, 6-(2-aminopropan-2-yl)-N-(3-(5-(3-hydroxyoxetan-3-yl)-6-methoxypyridin-3-yl)-4-methylphenyl)-4-(trifluoromethyl)picolinamide], 7 nM. With `Cc1ccc(NC(=O)c2ccnc(C(F)(F)F)n2)cc1-c1cc(OCCO)nc(C2CCOCC2)c1` [Example 254, N-(3-(2-(2-hydroxyethoxy)-6-(terahydro-2H-pyran-4-yl)pyridin-4-yl)-4-methylphenyl)-2-(trifluoromethyl) pyrimidine-4-carboxamide], it took 0.3 nM to reach half-maximal inhibition (IC50). For `Cc1ccc(NC(=O)c2cc(C(F)(F)F)ccn2)cc1-c1cc2c(c(C3CCOCC3)c1)NC(=O)C(C)(CO)O2` (single isomer, unassigned) [Example 193, N-(3-(2-(hydroxymethyl)-2-methyl-3-oxo-5-(tetrahydro-2H-pyran-4-yl)-3,4-dihydro-2H-benzo [b][1,4]oxazin-7-yl)-4-methylphenyl)-4-(trifluoromethyl) picolinamide carboxamide] the value was 0.02 nM. In turn, `Cc1ccc(NC(=O)c2ccnc(C(C)(F)F)c2)cc1-c1c[nH]c(=O)c(C2(O)COC2)c1` [Example 13, 2-(1,1-difluoroethyl)-N-(3-(5-(3-hydroxyoxetan-3-yl)-6-oxo-1,6-dihydropyridin-3-yl)-4-methylphenyl)isonicotinamide] displayed an IC50 of 1 nM. `CCOc1ncc(-c2cc(NC(=O)c3ccnc(C(F)(F)F)c3)ccc2C)cc1C1(C#N)CCOC1` (stereo not drawn) [Example 168, N-(3-(5-(3-cyanotetrahydrofuran-3-yl)-6-ethoxypyridin-3-yl)-4-methylphenyl)-2-(trifluoromethyl) isonicotinamide]: it took 0.3 nM to reach half-maximal inhibition (IC50). This IC50 lies about 3.3-fold lower than the previous one. With `Cc1ncc(NC(=O)c2ccc(CN)c(C(F)(F)F)c2)cc1-c1cccc(C2(C)COC2)c1` [Example 8], inhibition was half-maximal at 1 nM (IC50). Compound `Cc1ccc(NC(=O)c2cnnc(C(F)(F)F)c2)cc1-c1cc(OCCO)nc(C2(CO)CCOCC2)c1` [Example 217] displayed an IC50 of 0.3 nM.

For the compound `Cc1ccc(NC(=O)c2cc(C(F)(F)F)c(Cl)cn2)cc1-c1cc(OCCO)nc(C2CCOCC2)c1` [Example 266, 5-chloro-N-(3-(2-(2-hydroxyethoxy)-6-(tetrahydro-2H-pyran-4-yl)pyridin-4-yl)-4-methylphenyl)-4-(trifluoromethyl) picolinamide], half-maximal inhibition (IC50) required 2 nM. The compound `Cc1ccc(NC(=O)c2cc(C(F)(F)F)ccn2)cc1-c1cc2c(c(C3CCOCC3)c1)OC(C)(C)C(=O)N2` [Example 199, N-(3-(2,2-dimethyl-3-oxo-8-(tetrahydro-2H-pyran-4-yl)-3,4-dihydro-2H-benzo[b][1,4]oxazin-6-yl)-4-methylphenyl)-4-(trifluoromethyl) picolinamide] registered an IC50 of 1 nM.

Compound `CCOc1nnc(-c2cc(NC(=O)c3ccnc(C(F)(F)F)c3)ccc2C)cc1C1CCOCC1` [Example 239, N-(3-(6-ethoxy-5-(tetrahydro-2H-pyran-4-yl)pyridazin-3-yl)-4-methylphenyl)-2-(trifluoromethyl) isonicotinamide] returned a half-maximal inhibitory concentration (IC50) of 0.04 nM. For the compound `Cc1ccc(NC(=O)c2cnc(C(F)(F)F)cn2)cc1-c1cc(OCCO)nc(C2CCOCC2)c1` [Example 262, N-(3-(2-(2-hydroxyethoxy)-6-(tetrahydro-2H-pyran-4-yl)pyridin-4-yl)-4-methylphenyl)-5-(trifluoromethyl) pyrazine-2-carboxamide], the midpoint of inhibition, the IC50, lay at 1 nM. The compound `Cc1ccc(NC(=O)c2ccnc(C3(C(F)(F)F)CC3)c2)cc1-c1cc(OC[C@H](O)CO)nc(C2CCOCC2)c1` [Example 275, (R)-N-(3-(2-(2,3-dihydroxypropoxy)-6-(tetrahydro-2H-pyran-4-yl)pyridin-4-yl)-4-methylphenyl)-2-(1-(trifluoromethyl)cyclopropyl) isonicotinamide] gave a half-maximal inhibitory concentration (IC50) of 0.2 nM. As for `Cc1ncc(NC(=O)c2cccc(C(F)(F)F)c2)cc1-c1cc(C2COC2)c2nccn2n1` [Example 9, N-(6-methyl-5-(8-(oxetan-3-yl)imidazo[1,2-b]pyridazin-6-yl)pyridin-3-yl)-3-(trifluoromethyl)benzamide], the figure is 0.3 nM.

On to `Cc1ccc(NC(=O)c2ccnc(C(F)(F)F)c2)cc1-c1cc(OCCO)nc(C2(O)CCOCC2)c1` [Example 305, N-(3-(2-(2-hydroxyethoxy)-6-(4-hydroxytetra-hydro-2H-pyran-4-yl)pyridin-4-yl)-4-methylphenyl)-2-(trifluoro-methyl) isonicotinamide], for which inhibition was half-maximal at 0.331 nM (IC50).
